Measured values reported in paper PMC11364768 (Nature Communications, 2024).
In brackets after ≈: the same amount, converted by molar mass. No end group written: not given here.

What was measured:
[1] = test system: K. pneumoniae (ATCC27736); test: Minimal inhibition concentration; assay type: cell-based; conditions: Klebsiella pneumoniae, ATCC27736, 20 h, read-out: Antimicrobial activity (MIC in µg/ml) K. pneumoniae
E. coli (ATCC BAA-1025) = test: Minimal inhibition concentration; assay type: cell-based; conditions: Escherichia coli, ATCCBAA1025, 20 h, read-out: Antimicrobial activity (MIC in µg/ml) E. coli
S. aureus (ATCC 25904) = test: Minimal inhibition concentration; assay type: cell-based; conditions: Staphylococcus aureus, ATCC25904, 20 h, read-out: Antimicrobial activity (MIC in µg/ml) S. aureus
P. aeruginosa = test: Wound mouse model, bacterial load on the wound surface; assay type: in vivo, Female ICR mice; conditions: 10^7 CFU P. aeruginosa inoculated; 10 mg/kg applied to wound twice a day; n = 8
[2] = test system: P. aeruginosa (ATCC 47085); test: Minimal inhibition concentration; assay type: cell-based; conditions: Pseudomonas aeruginosa, ATCC47085, 20 h, read-out: Antimicrobial activity (MIC in µg/ml) P. aeruginosa
S. aureus = test: Bacterial resistance development, serial passage; assay type: cell-based, Staphylococcus aureus; conditions: passaged every 24 h, n = 4
Organ = assay type: in vivo, ICR mice; conditions: mice, 10 mg/kg
[3] = Blood test, RBC parameters after intraperitoneal injection; assay type: in vivo, ICR mice; conditions: mice, 24 h after intraperitoneal injection

| MIC [1] [µg/mL] | Compound | organ-specific toxicity, tissue section images (Organ) | Blood test results [3] | other results |
| --- | --- | --- | --- | --- |
| 0.06 (≈ 0.166 µM) | C[C@H]1COc2c(N3CCN(C)CC3)c(F)cc3c(=O)c(C(=O)O)cn1c23 [Levofloxacin] | – | – | MIC (E. coli (ATCC BAA-1025)): 2.93 µg/mL (≈ 8.11 µM); MIC (S. aureus (ATCC 25904)): 0.09 µg/mL (≈ 0.249 µM); bacteria on the infected wound after 24 h treatment (P. aeruginosa): 0 CFU; MIC [2]: 7.81 µg/mL (≈ 21.6 µM) |
| 1000 (≈ 690 µM) | CN[C@H](CC(C)C)C(=O)N[C@H]1C(=O)N[C@@H](CC(N)=O)C(=O)N[C@H]2C(=O)N[C@H]3C(=O)N[C@H](C(=O)N[C@H](C(=O)O)c4cc(O)cc(O)c4-c4cc3ccc4O)[C@H](O)c3ccc(c(Cl)c3)Oc3cc2cc(c3O[C@@H]2O[C@H](CO)[C@@H](O)[C@H](O)[C@H]2O[C@H]2C[C@](C)(N)[C@H](O)[C@H](C)O2)Oc2ccc(cc2Cl)[C@H]1O [Vancomycin] | – | – | – |
| – | O=C(O)c1cn(C2CC2)c2cc(N3CCNCC3)c(F)cc2c1=O [ciprofloxacin] | – | – | passages after which S. aureus began to develop resistance (S. aureus): 10 passages |
| – | RQIKIWFQIRRWKWKK [T1-2] | did not observe organ-specific toxicity | no obvious changes | – |
| – | RQIKIWFQWRRWKWKK [T1-5] | did not observe organ-specific toxicity | no obvious changes | – |
| – | RQIRIWFQWKRWKWKR [T2-10] | did not observe organ-specific toxicity | no obvious changes | – |
